Consider one compound from patent US7439266B2, “Malononitrile compound and use thereof” (Sumitomo Chemical Company, Limited, priority 2002, dated 2008).

This test has as its system Aphis gossypii. The test is described as follows: Test Example 3: spray on cucumber plant, Aphis gossypii. The class given is in vivo. The following applies: 500 ppm, sprayed 20 ml/cup on cucumber plant with about twenty Aphis gossypii; sixth day after the treatment. How it is done:
The formulation obtained according to Formulation Example 5 using the present invention compounds (23) was diluted with water so that the active ingredient concentration came to 500 ppm to prepare a pesticidal solution for test.
At the same time, molding Aisai 1 (available from KATAOKA TIKKARIN Co., Ltd.) was put into a 90 ml polyethylene cup, and seeded with cucumber. The plant was grown until the first true leaf was developed, on which about twenty Aphis gossypii were allowed to be parasitic. On the next day, the above pesticidal solution for test was sprayed at a ratio of 20 ml/cup on the cucumber plant. On the sixth day after the application, the number of Aphis gossypii was examined.

As for `CC(C)(C)OC(=O)CC(C#N)(C#N)CCF` [present invention compound (23), 2-(tert-butoxycarbonylmethyl)-2-(2-fluoroethyl)malononitrile], the “number of parasitic Aphis gossypii” value was not above 3.
